From patent US6994987B1, “Process for producing tripeptides” (Calpis Co., Ltd., priority 1999, dated 2006)
No end group written: not given here.

How the values were obtained:
[1] = test system: Aminipeptidase I + Carboxypeptidase Y; test: Reactivity of peptidase formulations against synthetic peptides: aminopeptidase I + carboxypeptidase Y; format: biochemical; conditions: phosphate buffer pH 5.3, 37° C. 3 hours, HPLC
Description: (§1) Peptides shown in Table 1 were chemically synthesized. […] All of these synthetic peptides were synthesized with the automatic peptide synthesizing machine PPSM-8 (manufactured by Shimadzu Corporation).
(§2) Each synthetic peptide was dissolved at the concentration of 10 μg/ml in 100 mM phosphate buffer pH 5.3 as to Experiments 1-1 to 1-4, 1-10 to 1-12, 1-16 and 1-21, or in 50 mM Tris-HCl buffer pH 8.0 as to other Experiments. Each of various peptidase formulations shown in Table 1 was then added so that the concentration thereof became 0.01 μg/ml, and the reaction was performed at 37° C. for 3 hours. After the enzyme reaction, the mixture was analyzed by the reverse phase high performance liquid chromatography (HPLC). […] The fractions of the detected peak were collected and amino acid sequence analysis was performed by the automatic peptide analyzer model PPSQ-10 (manufactured by Shimadzu Corporation). […]

Carboxypeptidase Y = target: T1, Carboxypeptidase Y (Saccharomyces cerevisiae, UniProt P00729); test: Reactivity of peptidase formulations against synthetic peptides: carboxypeptidase Y alone; format: biochemical; conditions: for Existence of IPP or VPP peaks: no aminopeptidase, carboxypeptidase Y, phosphate buffer pH 5.3, 37° C. 3 hours, HPLC
T1 construct: purchased Sigma Chemical Co
T1 sequence (P00729 112-532): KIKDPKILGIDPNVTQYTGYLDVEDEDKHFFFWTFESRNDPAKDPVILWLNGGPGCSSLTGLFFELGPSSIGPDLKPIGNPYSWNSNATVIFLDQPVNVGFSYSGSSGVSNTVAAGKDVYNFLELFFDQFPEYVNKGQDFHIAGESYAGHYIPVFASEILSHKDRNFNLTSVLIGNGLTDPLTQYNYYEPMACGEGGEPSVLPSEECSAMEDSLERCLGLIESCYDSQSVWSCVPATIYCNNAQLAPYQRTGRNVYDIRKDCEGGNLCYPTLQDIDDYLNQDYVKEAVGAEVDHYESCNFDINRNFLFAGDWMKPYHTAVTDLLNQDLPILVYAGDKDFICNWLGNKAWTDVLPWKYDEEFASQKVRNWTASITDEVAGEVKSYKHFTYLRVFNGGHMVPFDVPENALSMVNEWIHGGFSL
Description: as §1, §2

[2] = test system: fraction 4 (peptidase derived from Lactobacillus helveticus); test: Reaction of fraction 4 with chemically synthesized intermediate peptides as substrates; format: biochemical; conditions: substrate peptide reacted with fraction 4, HPLC
Description: A milk medium containing 9 wt % skim milk was inoculated with lactic acid bacteria Lactobacillus helveticus CM4 strain (deposited at National Institute of Bioscience and Human-Technology (1-3, Higashi 1 chome Tsukuba-shi Ibaraki-ken 305, Japan) under deposition number FEFM BP-6060 on Aug. 15, 1997) (referred to hereinbelow as CM4 strain). The bacteria were cultured at 37° C. for 24 hours. The CM4 strain has been accorded the aforementioned accession number under the Budapest Treaty on the International Recognition of the Deposit of Microorganisms for the Purposes of Patent Procedure. All restrictions on the availability to the public of this strain will be irrevocably removed upon the granting of a patent. To 500 ml of a fresh 9 wt % milk medium, cultured mixture was added at 5 wt %. […] was performed at 37° C. and at the pH of 6.5. Five hours after the start of pH stat culturing, sodium citrate was added so that the final concentration thereof became 2 wt %. The mixture was stirred for 30 minutes at room temperature. After confirming that the cultured liquid became clear, cell bodies were collected by centrifugation at 5000 g for 10 minutes. The cell bodies were washed twice with 50 mM phosphate buffer containing 150 mM NaCl pH 6.8, and suspended in 20 ml of 50 mM tris-Cl pH 8.0, and then crushed with an ultrasonic crusher (model 5203, manufactured by Ohtake Works Co.). Centrifugation at 15000 g was performed for 10 minutes for removing the precipitant and collecting the supernatant as a crude extract. 5 ml of the crude extract was passed through 1 ml of DEAE-sepharose column (manufactured by Pharmacia Corporation) that has been pre-equilibrated with the tris buffer. The column was washed with 5 ml of the tris buffer and then sequentially washed with 3 ml of tris buffers containing 50 mM, 100 mM, 150 mM, 200 mM, 300 mM and 500 mM NaCl, for fractionation.
An intermediate peptide Val-Pro-Pro-Phe-Leu was chemically synthesized. The synthesized peptide was dissolved at 10 μg/ml in 100 mM phosphate buffer (pH 6.1). This solution and one of the fractions 1 to 6 were mixed at the volume ratio of 9:1, and reacted at 37° C. for 30 minutes.
Further, it was confirmed that the tripeptide Ile-Pro-Pro was produced from the peptides Ile-Pro-Pro-Leu-Thr-Gln-Thr and Ile-Pro-Pro-Leu-Thr.

[3] = reported in JP-A-11-100328; cited from earlier work
[4] = test system: spontaneous hypertension rats (SHR); conditions: known in the prior art; cited from earlier work
hypertensive patients = conditions: known in the prior art; cited from earlier work
[5] = test system: synthetic peptide consisting of the 28 amino acids (SEQ ID NO: 28); test: Two step reaction of proteinase and fraction 4 on the 28 amino acid synthetic peptide; format: biochemical; conditions: proteinase 0.1 μg/ml on 28-mer 10 μg/ml, pH 6.1, 37° C. 5 hours, heat inactivation, then fraction 4; HPLC
Description: To 10 μg/ml of the synthetic peptide consisting of the 28 amino acids that is the same as the one used in Experiment 2 (in 100 mM phosphate buffer pH 6.1), each of the commercially available proteinase enzymes for food processing shown in Table 4 was added at 0.1 μg/ml. The mixture was reacted at 37° C. for 5 hours. After finishing the reaction, the reacted liquid was heated at 100° C. for 5 minutes for inactivating the proteinase, and then reacted with the fraction 4 obtained in Experiment 4.

[6] = target: angiotensin converting enzyme (ACE) (Homo sapiens, UniProt P12821); conditions: known in the prior art; cited from earlier work
Sequence of angiotensin converting enzyme (ACE) (P12821 30-1306, species assumed): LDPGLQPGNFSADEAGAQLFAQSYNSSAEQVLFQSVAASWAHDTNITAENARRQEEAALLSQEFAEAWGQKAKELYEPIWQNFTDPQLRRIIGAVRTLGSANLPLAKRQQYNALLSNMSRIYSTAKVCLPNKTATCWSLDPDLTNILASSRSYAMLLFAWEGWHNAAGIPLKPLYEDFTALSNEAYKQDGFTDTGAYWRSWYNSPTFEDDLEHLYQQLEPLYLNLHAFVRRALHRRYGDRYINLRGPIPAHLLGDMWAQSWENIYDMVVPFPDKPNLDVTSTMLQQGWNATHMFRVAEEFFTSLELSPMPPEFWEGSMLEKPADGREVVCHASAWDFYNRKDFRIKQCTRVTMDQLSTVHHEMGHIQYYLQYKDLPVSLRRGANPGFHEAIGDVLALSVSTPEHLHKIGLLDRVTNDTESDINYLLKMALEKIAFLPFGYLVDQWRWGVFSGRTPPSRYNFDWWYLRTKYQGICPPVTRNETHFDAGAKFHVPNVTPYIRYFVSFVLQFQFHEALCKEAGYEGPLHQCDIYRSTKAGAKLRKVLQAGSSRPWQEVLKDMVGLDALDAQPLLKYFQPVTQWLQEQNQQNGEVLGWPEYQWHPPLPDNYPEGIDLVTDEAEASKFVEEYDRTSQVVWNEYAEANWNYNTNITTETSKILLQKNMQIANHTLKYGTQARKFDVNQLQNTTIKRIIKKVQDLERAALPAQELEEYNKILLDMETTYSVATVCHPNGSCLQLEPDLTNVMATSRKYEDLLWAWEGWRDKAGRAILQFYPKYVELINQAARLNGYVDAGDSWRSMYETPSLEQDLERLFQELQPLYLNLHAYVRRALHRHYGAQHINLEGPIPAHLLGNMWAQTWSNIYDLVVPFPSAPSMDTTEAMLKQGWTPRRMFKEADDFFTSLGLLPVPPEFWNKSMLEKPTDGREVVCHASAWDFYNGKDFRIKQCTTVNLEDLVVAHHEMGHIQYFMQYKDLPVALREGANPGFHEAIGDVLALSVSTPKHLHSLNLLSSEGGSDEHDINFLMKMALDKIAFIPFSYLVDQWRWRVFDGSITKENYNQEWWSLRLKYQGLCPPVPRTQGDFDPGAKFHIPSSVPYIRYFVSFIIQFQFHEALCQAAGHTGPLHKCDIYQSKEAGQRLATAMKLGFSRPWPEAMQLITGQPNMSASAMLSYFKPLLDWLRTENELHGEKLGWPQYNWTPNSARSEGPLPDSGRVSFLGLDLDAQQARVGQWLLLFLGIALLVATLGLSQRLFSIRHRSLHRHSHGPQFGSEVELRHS

## QNIPPLTQT
[1]
  Existence of IPP or VPP peaks: IPP
[1]; listed as Gln-Asn-Ile-Pro-Pro-Leu-Thr-Gln-Thr
  Existence of IPP or VPP peaks: production of the tripeptides Ile-Pro-Pro or Val-Pro-Pro was also recognized

## VVVPPFLQ
[1]
  Existence of IPP or VPP peaks: VPP
[1]; listed as Val-Val-Val-Pro-Pro-Phe-Leu-Gln
  Existence of IPP or VPP peaks: production of the tripeptides Ile-Pro-Pro or Val-Pro-Pro was also recognized

## Val Pro Pro Phe (VPPF)
Carboxypeptidase Y
  Existence of IPP or VPP peaks: VPP

## IPPLTQT
Carboxypeptidase Y
  Existence of IPP or VPP peaks: IPP
[2]
  Peptide produced: Ile Pro Pro
[2]; listed as Ile-Pro-Pro-Leu-Thr-Gln-Thr
  Peptide produced: Ile-Pro-Pro

## Val Pro Pro (VPP) [Val-Pro-Pro, tripeptide produced by the method]
[3]
  anti-stress activity: anti-stress activity
[4]
  anti-hypertensive activity on spontaneous hypertension rats (SHR): strong anti-hypertensive activity
Hypertensive patients
  anti-hypertensive effect on hypertensive patients: anti-hypertensive effect

## VPPFLQ
Carboxypeptidase Y
  Existence of IPP or VPP peaks: VPP
[2]
  Peptide produced: Val Pro Pro
[2]; listed as Val-Pro-Pro-Phe-Leu-Gln
  Peptide produced: Val-Pro-pro

## Pepsin
[5]
  Production of the tripeptides Ile-Pro-Pro and Val-Pro-Pro: No

## Ile Pro Pro (IPP) [Ile-Pro-Pro, tripeptide produced by the method]
[3]
  anti-stress activity: anti-stress activity
[4]
  anti-hypertensive activity on spontaneous hypertension rats (SHR): strong anti-hypertensive activity
Hypertensive patients
  anti-hypertensive effect on hypertensive patients: anti-hypertensive effect
[6]
  ACE inhibitory activity: strong

## Leu-Pro-Pro [reference compound]
[6]
  ACE inhibitory activity: ACE inhibitory activity

## Val Pro Pro Phe Leu (VPPFL)
[2]
  Peptide produced: Val Pro Pro
[2]; listed as Val-Pro-Pro-Phe-Leu
  Peptide produced: Val-Pro-pro

## Ile Pro Pro Leu Thr (IPPLT)
[2]
  Peptide produced: Ile Pro Pro
[2]; listed as Ile-Pro-Pro-Leu-Thr
  Peptide produced: Ile-Pro-Pro

B1: Trypsin (Type I): proteinase, bovine pancreas, Sigma Chemical Co. (protein, UniProt P00760 24-246, looked up)
Serine protease 1: IVGGYTCGANTVPYQVSLNSGYHFCGGSLINSQWVVSAAHCYKSGIQVRLGEDNINVVEGNEQFISASKSIVHPSYNSNTLNNDIMLIKLKSAASLNSRVASISLPTSCASAGTQCLISGWGNTKSSGTSYPDVLKCLKAPILSDSSCKSAYPGQITSNMFCAGYLEGGKDSCQGDSGGPVVCSGKLQGIVSWGSGCAQKNKPGVYTKVCNYVSWIKQTIASN
[5]
  Production of the tripeptides Ile-Pro-Pro and Val-Pro-Pro: No

B2: carboxy peptidase Y: Carboxypeptidase Y (manufactured by Sigma Chemical Co.) (protein, UniProt P00729 112-532, looked up)
Carboxypeptidase Y: T1 sequence (P00729 112-532)
Carboxypeptidase Y; reaction at pH 5.3
  Bond cleavage by the enzyme (in words): capable of effectively cleave the bond between Pro and Leu in Pro-Pro-Leu and the bond between Pro and Phe in Pro-Pro-Phe

B3: Subtilisin BPN: proteinase, Bacillus amyloliquefaciens, Sigma Chemical Co. (protein, UniProt P00782 108-382, looked up)
Subtilisin BPN': AQSVPYGVSQIKAPALHSQGYTGSNVKVAVIDSGIDSSHPDLKVAGGASMVPSETNPFQDNNSHGTHVAGTVAALNNSIGVLGVAPSASLYAVKVLGADGSGQYSWIINGIEWAIANNMDVINMSLGGPSGSAALKAAVDKAVASGVVVVAAAGNEGTSGSSSTVGYPGKYPSVIAVGAVDSSNQRASFSSVGPELDVMAPGVSIQSTLPGNKYGAYNGTSMASPHVAGAAALILSKHPNWTNTQVRSSLENTTTKLGDSFYYGKGLINVQAAAQ
[5]
  Production of the tripeptides Ile-Pro-Pro and Val-Pro-Pro: No

B4: Subtilisin Carlsberg: proteinase, Bacillus licheniformis, Sigma Chemical Co. (protein, UniProt P00780 106-379, looked up)
Subtilisin Carlsberg: AQTVPYGIPLIKADKVQAQGFKGANVKVAVLDTGIQASHPDLNVVGGASFVAGEAYNTDGNGHGTHVAGTVAALDNTTGVLGVAPSVSLYAVKVLNSSGSGSYSGIVSGIEWATTNGMDVINMSLGGASGSTAMKQAVDNAYAKGVVVVAAAGNSGSSGNTNTIGYPAKYDSVIAVGAVDSNSNRASFSSVGAELEVMAPGAGVYSTYPTNTYATLNGTSMASPHVAGAAALILSKHPNLSASQVRNRLSSTATYLGSSFYYGKGLINVEAAAQ
[5]
  Production of the tripeptides Ile-Pro-Pro and Val-Pro-Pro: No
